From ChEMBL document CHEMBL1201862, “PubChem BioAssay data set” (2004)
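Dose response: 5 concentrations. Exposure: 48 h. Format: 96-well plates. Endpoint: linear interpolation; highest concentration if not reached. GI50: concentration for 50% inhibition of growth.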 Active and inactive are the calls of the source. Rule as the data show it: active = GI50 up to about 1.1 µM and inactive = higher.

How the values were obtained:
Test in all cases: growth of human tumour cells (NCI), 48 h
[1] = system: COLO 205
[2] = system: DU-145
[3] = system: HCC 2998
[4] = system: HCT-116
[5] = system: HCT-15
[6] = system: HL-60
[7] = system: HOP-62
[8] = system: IGROV-1
[9] = system: M14
[10] = system: MDA-MB-435
[11] = system: NCI-H226
[12] = system: NCI-H460
[13] = system: OVCAR-3
[14] = system: OVCAR-5
[15] = system: PC-3
[16] = system: SF-268
[17] = system: SF-539
[18] = system: SK-MEL-5
[19] = system: SNB-75
[20] = system: HOP-92

Row | SMILES | GI50 [1] | GI50 [2] | GI50 [3] | GI50 [4] | GI50 [5] [µM] | GI50 [6] | GI50 [7] | GI50 [8] | GI50 [9] | GI50 [10] | GI50 [11] | GI50 [12] | GI50 [13] | GI50 [14] | GI50 [15] | GI50 [16] | GI50 [17] | GI50 [18] | GI50 [19] | GI50 [20]
1 | CN(C)c1ccc(/C=C/C(=O)CC(=O)/C=C/c2ccc(N(C)C)cc2)cc1 | > 100 µM (inactive) | > 100 µM (inactive) | > 100 µM (inactive) | 57.3 µM (inactive) | > 100 | > 100 µM (inactive) | > 100 µM (inactive) | > 100 µM (inactive) | > 100 µM (inactive) | > 100 µM (inactive) | > 100 µM (inactive) | > 100 µM (inactive) | 65.3 µM (inactive) | > 100 µM (inactive) | > 100 µM (inactive) | > 100 µM (inactive) | > 100 µM (inactive) | > 100 µM (inactive) | > 100 µM (inactive) | 
2 | NCCCN(CCCCN(CCCN)Cc1ccc2ccccc2c1)Cc1ccc2ccccc2c1 | 2.55 µM (inactive) | 2.22 µM (inactive) | 2.86 µM (inactive) | 2.54 µM (inactive) | 3.58 | 3.76 µM (inactive) |  | 1.82 µM (inactive) | 1.97 µM (inactive) | 2.2 µM (inactive) | 1.8 µM (inactive) | 1.55 µM (inactive) |  | 1.84 µM (inactive) |  | 1.29 µM (inactive) | 1.8 µM (inactive) | 1.92 µM (inactive) | 1.5 µM (inactive) | 2.83 µM (inactive)
3 | CC1(C)C(=S)C(C)(C)C1=S | > 100 µM (inactive) | > 100 µM (inactive) | > 100 µM (inactive) | > 100 µM (inactive) | > 100 |  | > 100 µM (inactive) | > 100 µM (inactive) | > 100 µM (inactive) | > 100 µM (inactive) | > 100 µM (inactive) | > 100 µM (inactive) | > 100 µM (inactive) | > 100 µM (inactive) | > 100 µM (inactive) | > 100 µM (inactive) | > 100 µM (inactive) | > 100 µM (inactive) | > 100 µM (inactive) | 
4 | COC(=O)c1ccccc1CC(Cc1ccccc1)C(=O)OC (stereo not given) | 64.6 µM (inactive) | > 100 µM (inactive) | 40.3 µM (inactive) | 47.9 µM (inactive) | 31.3 | 18.5 µM (inactive) | > 100 µM (inactive) | > 100 µM (inactive) | 68.7 µM (inactive) | 75.3 µM (inactive) | 43.1 µM (inactive) | > 100 µM (inactive) | 58.1 µM (inactive) | 62.7 µM (inactive) | 47.1 µM (inactive) | 20.3 µM (inactive) | > 100 µM (inactive) | 22.8 µM (inactive) | 20 µM (inactive) | 
5 | Cc1c(N2C(=O)/C(=C/c3ccc(N(CCC#N)CCC#N)cc3)N=C2c2ccccc2)c(=O)n(-c2ccccc2)n1C | > 100 µM (inactive) | > 100 µM (inactive) | > 100 µM (inactive) | > 100 µM (inactive) | 70 | 96.2 µM (inactive) | > 100 µM (inactive) | > 100 µM (inactive) | > 100 µM (inactive) | > 100 µM (inactive) | > 100 µM (inactive) | > 100 µM (inactive) | > 100 µM (inactive) | > 100 µM (inactive) |  | > 100 µM (inactive) | > 100 µM (inactive) | > 100 µM (inactive) |  | > 100 µM (inactive)
6 | COc1ccc(S(=O)(=O)c2nnc(S(=O)(=O)Cc3ccccc3)s2)cc1 | 13 µM (inactive) | 17 µM (inactive) |  | 20.4 µM (inactive) | 25.7 |  | 30.3 µM (inactive) |  | 17.5 µM (inactive) | 22.5 µM (inactive) |  | 17.4 µM (inactive) | 32.2 µM (inactive) | 25.8 µM (inactive) | 21.1 µM (inactive) | 33.7 µM (inactive) | 12 µM (inactive) | 19.5 µM (inactive) | 16.4 µM (inactive) | 
7 | CCOP(=O)(/C=C/n1cnc2c(=O)n(C(C)=O)c(N)nc21)OCC | > 100 µM (inactive) | > 100 µM (inactive) |  | > 100 µM (inactive) | > 100 | > 100 µM (inactive) | > 100 µM (inactive) | > 100 µM (inactive) | > 100 µM (inactive) | > 100 µM (inactive) | 70.3 µM (inactive) | > 100 µM (inactive) | > 100 µM (inactive) | > 100 µM (inactive) | > 100 µM (inactive) | > 100 µM (inactive) | > 100 µM (inactive) | > 100 µM (inactive) | > 100 µM (inactive) | 
8 | CC(=O)Oc1cccc2c1C(=O)CCCC2 | > 100 µM (inactive) | > 100 µM (inactive) | > 100 µM (inactive) | > 100 µM (inactive) | > 100 | > 100 µM (inactive) | > 100 µM (inactive) | > 100 µM (inactive) | > 100 µM (inactive) | > 100 µM (inactive) | > 100 µM (inactive) | > 100 µM (inactive) | > 100 µM (inactive) | > 100 µM (inactive) | > 100 µM (inactive) | > 100 µM (inactive) | > 100 µM (inactive) | > 100 µM (inactive) | 0.0692 µM (active) | 
9 | NCCCN(CCCN(C(=O)Nc1ccccc1)c1ccccc1)C(=O)Nc1ccccc1 | 36.8 µM (inactive) | 36.8 µM (inactive) | 25.6 µM (inactive) | 18.6 µM (inactive) | 28.9 | 28.1 µM (inactive) | 25.1 µM (inactive) | 51.1 µM (inactive) | 19.4 µM (inactive) |  | 44 µM (inactive) | 31 µM (inactive) |  | 43.2 µM (inactive) | 33.7 µM (inactive) | 32.6 µM (inactive) |  | 18.5 µM (inactive) | 23.2 µM (inactive) | 27.2 µM (inactive)
10 | CCNC(=O)c1cc(Cl)ccc1NC(=O)C12CC3CC(CC(C3)C1)C2 | 31 µM (inactive) | 28.4 µM (inactive) |  | 31.3 µM (inactive) | 32.7 | 25.5 µM (inactive) | 30.1 µM (inactive) | 33.1 µM (inactive) | 31.8 µM (inactive) | 29 µM (inactive) | > 100 µM (inactive) | 34.3 µM (inactive) | 36.1 µM (inactive) | 42.3 µM (inactive) | 32.1 µM (inactive) | > 100 µM (inactive) | > 100 µM (inactive) | 30.1 µM (inactive) |  | 30.4 µM (inactive)
11 | c1ccc2c(c1)c1c(n2CCOCCN2CCOCC2)CCCC1 | > 10 µM (inactive) | > 100 µM (inactive) | > 10 µM (inactive) | 29.8 µM (inactive) | 36.5 | 20 µM (inactive) | 26.3 µM (inactive) | 36 µM (inactive) | 12.4 µM (inactive) |  |  | 27.5 µM (inactive) | 26.9 µM (inactive) | 25.1 µM (inactive) | 24.7 µM (inactive) | 20.7 µM (inactive) | 86.1 µM (inactive) | 18.2 µM (inactive) | 2.36 µM (inactive) | 29.2 µM (inactive)
12 | CCCCN(CCCC)CC(C(=O)Nc1ccc([N+](=O)[O-])cc1[N+](=O)[O-])/C(C)=N\NC(=O)C[N+](C)(C)C (stereo not given) | 35.7 µM (inactive) |  | > 100 µM (inactive) | 69.5 µM (inactive) | 46.8 | > 100 µM (inactive) | > 100 µM (inactive) | > 100 µM (inactive) | > 100 µM (inactive) |  | > 100 µM (inactive) | 55.7 µM (inactive) | > 100 µM (inactive) | > 100 µM (inactive) |  | > 100 µM (inactive) | > 100 µM (inactive) | > 100 µM (inactive) | 29 µM (inactive) | 33 µM (inactive)
13 | CN(CCO)c1nc2c(c(=O)[nH]1)CNCC2 | > 100 µM (inactive) |  | > 100 µM (inactive) | > 100 µM (inactive) | > 100 | > 100 µM (inactive) | > 100 µM (inactive) | > 100 µM (inactive) | > 100 µM (inactive) |  | > 100 µM (inactive) | > 100 µM (inactive) | > 100 µM (inactive) | > 100 µM (inactive) |  | > 100 µM (inactive) | > 100 µM (inactive) | > 100 µM (inactive) | 32.8 µM (inactive) | > 100 µM (inactive)
14 | CC1=CC(O)(c2ccccc2)C(N2CCOCC2)N1O (stereo not given) | > 100 µM (inactive) |  | > 100 µM (inactive) | > 100 µM (inactive) | > 100 |  | > 100 µM (inactive) | > 100 µM (inactive) | > 100 µM (inactive) | > 100 µM (inactive) | > 100 µM (inactive) | > 100 µM (inactive) | > 100 µM (inactive) | > 100 µM (inactive) | > 100 µM (inactive) | > 100 µM (inactive) | > 100 µM (inactive) | > 100 µM (inactive) |  | 
15 | Cc1ccccc1-n1c(=O)sc2c(=O)n(-c3ccccc3)c(=S)[nH]c21 | > 100 µM (inactive) |  | > 100 µM (inactive) | > 100 µM (inactive) | > 100 | > 100 µM (inactive) | > 100 µM (inactive) | > 100 µM (inactive) | > 100 µM (inactive) |  | > 100 µM (inactive) | > 100 µM (inactive) | > 100 µM (inactive) | 95.5 µM (inactive) |  | > 100 µM (inactive) | > 100 µM (inactive) | > 100 µM (inactive) | > 100 µM (inactive) | > 100 µM (inactive)
16 | CN(C)CCNC1=Nc2ccccc2C(=O)N2CSCC12 (stereo not given) | > 100 µM (inactive) | > 100 µM (inactive) | > 100 µM (inactive) | > 100 µM (inactive) | > 100 |  | > 100 µM (inactive) | > 100 µM (inactive) | > 100 µM (inactive) | > 100 µM (inactive) | > 100 µM (inactive) | > 100 µM (inactive) | > 100 µM (inactive) | > 100 µM (inactive) | > 100 µM (inactive) | > 100 µM (inactive) |  | > 100 µM (inactive) | > 100 µM (inactive) | 
